Laboratory results: publication PMC9224751 (International Journal of Molecular Sciences, 2022)
Where two headings read alike, the source gives them in different places.

What was measured:
SARS-CoV-2 [1] = conditions: Vero E6 cells; published; cited from earlier work
SARS-CoV-2 [2] = conditions: Calu-3; published; cited from earlier work
[3] = test system: SARS-CoV-2 Wuhan type (SARS-CoV-2PR-1); experiment: SARS-CoV-2 replication in Calu-3 cells, qRT-PCR; type: cell-based; conditions: for IC50 / IC90: Severe acute respiratory syndrome coronavirus 2, Calu-3, Wuhan type, 3 dpi
SARS-CoV-2 Beta = experiment: VoC replication in Calu-3 cells, qRT-PCR; type: cell-based; conditions: Severe acute respiratory syndrome coronavirus 2
[4] = test system: SARS-CoV-2 Wuhan Type, Delta, or Omicron; experiment: Combination treatment in Calu-3 cells, summary over the three viruses, qRT-PCR; type: cell-based; conditions: single treatment
SARS-CoV-2 Alpha = experiment: VoC replication in Calu-3 cells, qRT-PCR; type: cell-based; conditions: Severe acute respiratory syndrome coronavirus 2
[5] = test system: SARS-CoV-2 Wuhan type (SARS-CoV-2PR-1); experiment: SARS-CoV-2 replication in Vero B4 cells, virions in supernatant by qRT-PCR; type: cell-based; conditions: for IC50: MOI 2 × 10^−2
[6] = test system: SARS-CoV-2 Wuhan type (SARS-CoV-2PR-1); experiment: SARS-CoV-2 replication in A549-ACE2+/TMPRSS2+ cells, qRT-PCR; type: cell-based; conditions: Severe acute respiratory syndrome coronavirus 2, 3 dpi
[7] = test system: SARS-CoV-2 Wuhan type (SARS-CoV-2PR-1); experiment: SARS-CoV-2 replication in Caco-2 cells, qRT-PCR; type: cell-based; conditions: Severe acute respiratory syndrome coronavirus 2, 3 dpi
[8] = test system: uninfected Vero B4, A549-ACE2/TMPRSS2+, Caco-2, or Calu-3 cells; experiment: WST-1 cell viability assay, all cell types; type: cell-based; conditions: three days
Method: (§1) To control for potential unspecific effects of PAM treatment on cell viability, water-soluble tetrazolium salt (WST)-1 assays were performed in uninfected Vero B4, A549-ACE2/TMPRSS2+, Caco-2, or Calu-3 cells under otherwise identical conditions as the virus infection experiments. […] Staurosporine (StS) was used as a positive control at a concentration of 1 µM. DMSO as a solvent control was added in the same amount as the respective highest concentration of PAM.
(§2) Following treatment with different concentrations of PAM (PAM concentrations are indicated at the x-axis) for three days, the influence on cell viability was measured by water-soluble tetrazolium salt (WST)-1 assay. […] Staurosprine (StS, 1 µM) was used as a positive control. DMSO as solvent control was added in the same amount as in the highest concentration of PAM (100 µM (A,B); 1000 µM (C,D)).
(§3) Viability of uninfected and treated cells was assessed by the water-soluble tetrazolium salt (WST)-1 assay (Roche, Basel, Switzerland) according to the manufacturer’s instructions. Cells were treated for 72 h with various inhibitors according to the protocols of the infection experiments.

Calu-3 cells = experiment: WST-1 cell viability assay; type: cell-based, human; conditions: uninfected Calu-3, three days
Method: as §1, §2, §3

SARS-CoV-2 Delta = experiment: VoC replication in Calu-3 cells, qRT-PCR; type: cell-based; conditions: for IC50 / IC90: Severe acute respiratory syndrome coronavirus 2, […]
[9] = test system: SARS-CoV-2 VoCs Alpha, Beta, Gamma, Delta, and Omicron; experiment: VoC replication in Calu-3 cells, summary over all VoCs, qRT-PCR; type: cell-based; conditions: for IC90: Severe acute respiratory syndrome coronavirus 2, read-out: IC90, range over VoCs
Caco-2 cells = experiment: WST-1 cell viability assay; conditions: uninfected Caco-2, three days
[10] = test system: SARS-CoV-2 Omicron (SARS-CoV-2OM); experiment: VoC replication in Calu-3 cells, qRT-PCR; type: cell-based
[11] = test system: SARS-CoV-2 Wuhan type (SARS-CoV-2PR-1); experiment: Quantitative immunofluorescence of SARS-CoV-2 nucleoprotein (NP) in infected Calu-3 cells; type: cell-based; conditions: 30 h treatment, increasing concentrations
Method: In addition, and to confirm the results obtained from the qRT-PCR analysis of the cell culture supernatants, Calu-3 cells were infected with the wildtype isolate SARS-CoV-2PR-1 at the same MOI (Figure 1) and subsequently treated with different concentrations of PAM for 30 h. Cells were fixed and further stained with a SARS-CoV-2 nucleoprotein (NP)-specific antibody. RDV was used as a positive control at 1 µM (Figure S1, see Supplementary Materials).
For immunostaining, infected Calu-3 cells were fixed with 4% PFA for 15 min. Following a washing step with PBS, cells were blocked and permeabilized overnight with 1% BSA in PBS (+0.2% Triton) and afterwards stained with a polyclonal rabbit anti-NP antibody (GeneTex, Cat. No. GTX135357, Irvine, CA, USA) for 24 h. […] For analysis, immunostaining was quantitative analyzed with a PerkinElmer VictorX4 reader (488 nm) (PerkinElmer, Waltham, MA, USA) and pictures were taken using a CTL-ELISPOT reader (Cellular Technology Ltd., Shaker Heights, OH, USA).
Figure S1. […] Quantitative immunofluorescent microscopy was performed to detect the viral nucleocapsid protein in Calu-3 cells 30 hrs post-infection with SARS-CoV-2 Wuhan type using an Alexa488-conjugated anti-SARS-CoV-2 nucleo-protein (NP)-antibody or DAPI as a control. […]

SARS-CoV-2 Gamma = experiment: VoC replication in Calu-3 cells, qRT-PCR; type: cell-based; conditions: Severe acute respiratory syndrome coronavirus 2
SARS-CoV-2 Wuhan type = experiment: SARS-CoV-2 replication, summary over Vero B4, A549-ACE2+/TMPRSS2+, Caco-2 and Calu-3 cells, qRT-PCR; type: cell-based; conditions: for IC90: Severe acute respiratory syndrome coronavirus 2, Wuhan type, Vero B4, A549-ACE2+/TMPRSS2+, Caco-2, Calu-3, read-out: IC90 values, range among all investigated cell lines
[12] = design: method as in PMID 34580086; conditions: use of Pio, after a COVID-19 diagnosis, cited from earlier work
[13] = Severe acute respiratory syndrome coronavirus 2, Calu-3
[14] = Severe acute respiratory syndrome coronavirus 2, Vero B4, Wuhan type, 3 dpi
[15] = Severe acute respiratory syndrome coronavirus 2, Calu-3, Calu-3, […]

Row | SMILES | inhibition at 0.05 µM [3, 13] | IC50 [3] | IC90 [3] | IC50 (SARS-CoV-2 Beta) | IC90 (SARS-CoV-2 Beta) | IC50 (SARS-CoV-2 Alpha) | IC90 (SARS-CoV-2 Alpha) | IC50 [5, 14] | IC50 [6] | IC50 [7] | TD50 (Calu-3 cells) | IC50 (SARS-CoV-2 Delta) | IC90 (SARS-CoV-2 Delta) | IC90 [9] | TD50 (Caco-2 cells) | IC50 [10, 15] | IC90 [10, 15] | IC50 (SARS-CoV-2 Gamma) | IC90 (SARS-CoV-2 Gamma) | IC90 (SARS-CoV-2 Wuhan type) | further results
1 | CCC(CC)COC(=O)[C@H](C)N[P@](=O)(OC[C@H]1O[C@@](C#N)(c2ccc3c(N)ncnn23)[C@H](O)[C@@H]1O)Oc1ccccc1 [Remdesivir] |  |  |  |  |  |  |  |  |  |  |  |  |  |  |  |  |  |  |  |  | IC90 (SARS-CoV-2 [1]): 3000 nM; IC90 (SARS-CoV-2 [2]): 1280 nM
2 | Cn1c(=O)c(Oc2ccc(F)cc2F)cc2cnc(NC(CCO)CCO)nc21 [PAM, Pamapimod] | 33.9% | ~100 nM | ~3000 nM | ~250 nM | ~3000 nM | ~250 nM | ~3000 nM | ~200 nM | ~200 nM | ~250 nM | ~ 1000 µM | ~250 nM | ~4000 nM | 3000 to 4000 nM | ~ 1000 µM | ~250 nM | ~2000 nM | ~250 nM | ~3000 nM | 2000 to 3000 nM | inhibition at 0.01 µM [3, 13]: 10.5%; reduction of virus replication, max. ([4]; 50 nM PAM, Figure 7B): ≤ 33%; IC90 ([5]; Severe acute respiratory syndrome coronavirus 2, Vero B4, Wuhan type, 3 dpi, read-out: IC90): ~2000 nM; IC90 [6]: ~2000 nM; IC90 [7]: ~3000 nM; impact on cell viability ([8]; concentrations up to 100 µg/mL): no impact on cell viability; inhibition at 0.01 µM (SARS-CoV-2 Delta; Severe acute respiratory syndrome coronavirus 2, PAM 0.01 µM, Pio 0 µM, Fig 7D): 2.86%; inhibition at 0.05 µM (SARS-CoV-2 Delta; Severe acute respiratory syndrome coronavirus 2, PAM 0.05 µM, Pio 0 µM, Fig 7D): 27.6%; IC50 ([9]; Severe acute respiratory syndrome coronavirus 2): ~250 nM; IC90 ([10]; Calu-3, […]): ~3000 nM; inhibition at 0.01 µM ([10]; Severe acute respiratory syndrome coronavirus 2, PAM 0.01 µM, Pio 0 µM, Calu-3, Fig 7F): 3.6%; inhibition at 0.05 µM ([10]; Severe acute respiratory syndrome coronavirus 2, PAM 0.05 µM, Pio 0 µM, Calu-3, Fig 7F): 28.6%; SARS-CoV-2 replication within infected cells (NP staining normalized to DAPI) [11]: effectively suppressed SARS-CoV-2 replication in a dose-dependent manner; production of progeny virions (SARS-CoV-2 Wuhan type; at a concentration of 6.25 µM, all infected cell lines): almost completely blocked
3 | CCc1ccc(CCOc2ccc(CC3SC(=O)NC3=O)cc2)nc1 (centres unmarked) [Pio, Pioglitazone] | 15.9% | ~800 nM | ~10000 nM | ~900 nM | ~15000 nM | ~800 nM | ~15000 nM | ~500 nM | ~1000 nM | ~700 nM | 500 to 1000 µM | ~500 nM | ~12000 nM | 12000 to 15000 nM | 500 to 1000 µM | ~900 nM | ~10000 nM | ~700 nM | ~15000 nM | 8000 to 10000 nM | inhibition at 0.02 µM [3, 13]: 4.64%; inhibition at 0.1 µM [3, 13]: 36.9%; inhibition at 0.3 µM [3, 13]: 48.3%; reduction of viral replication, max. ([4]; 300 nM Pio, Figure 7D): ≤ 48%; IC90 ([5]; Severe acute respiratory syndrome coronavirus 2, Vero): ~8000 nM; impact on cell viability ([8]; concentrations up to ~80 µM): no impact on cell viability; inhibition at 0.02 µM (SARS-CoV-2 Delta; Severe acute respiratory syndrome coronavirus 2, PAM 0 µM, Pio 0.02 µM, Fig 7D): 0.48%; inhibition at 0.05 µM (SARS-CoV-2 Delta; Severe acute respiratory syndrome coronavirus 2, PAM 0 µM, Pio 0.05 µM, Fig 7D): 12.2%; inhibition at 0.1 µM (SARS-CoV-2 Delta; Severe acute respiratory syndrome coronavirus 2, PAM 0 µM, Pio 0.1 µM, Fig 7D): 32.4%; inhibition at 0.3 µM (SARS-CoV-2 Delta; Severe acute respiratory syndrome coronavirus 2, PAM 0 µM, Pio 0.3 µM, Fig 7D): 46.9%; hospital admissions ([12]; vs. 28.2% comparator): 20.0%; RR of hospital admissions [12]: 0.71; IC50 ([10]; Calu-3, […]): ~700 nM; inhibition at 0.02 µM ([10]; Severe acute respiratory syndrome coronavirus 2, PAM 0 µM, Pio 0.02 µM, Calu-3, Fig 7F): 1.44%; inhibition at 0.05 µM ([10]; Severe acute respiratory syndrome coronavirus 2, PAM 0 µM, Pio 0.05 µM, Calu-3, Fig 7F): 12.2%; inhibition at 0.1 µM ([10]; Severe acute respiratory syndrome coronavirus 2, PAM 0 µM, Pio 0.1 µM, Calu-3, Fig 7F): 27.1%; inhibition at 0.3 µM ([10]; Severe acute respiratory syndrome coronavirus 2, PAM 0 µM, Pio 0.3 µM, Calu-3, Fig 7F): 44%; SARS-CoV-2 replication (SARS-CoV-2 Wuhan type; at ~80 µM, all test settings): completely suppresses
